Experiments:
PC-3m tumor = details: for histopathologic examination of tumors: after 5 weeks of treatment; for average survival time / lifespan: from beginning of treatment till natural death
Procedure: Tumor Model: BALB/C nude mice aged 4-6 weeks and weight at 16-20 g were provided by the Experimental Animal Center of the Fourth Military Medical University (Xi'an, China) and bred in a sterile isolator. They were derma-inoculated with 0.1 ml of PC-3m suspension (1×10^7 cells). The drugs were administrated when the volume of tumor was approximately 0.5 cm^3.
1) Groups and treatments. 56 nude mice carrying tumors were randomized into 7 groups: {circle over (1)}Control group, intravenously administered with 0.5 ml of saline; {circle over (2)}Treatment Group I, intravenously administered with MTX (5 mg/kg); {circle over (3)}Treatment Group II, intravenously administered with MTX-α-Phe (5.32 mg/kg) {circle over (4)}Treatment Group III, intravenously administered with 0.5 ml of anti-γ-SmMcAb-CP-A; {circle over (5)}Treatment Group IV, intravenously administered with 0.5 ml of the fusion protein; {circle over (6)}Treatment Group V, intravenously administered with 0.5 ml of γ-SmMcAb-CP-A first and MTX-α-Phe (5.32 mg/kg) 72 h later (ADEPT-1); {circle over (7)}Treatment Group VI, intravenously administered with 0.5 ml of the fusion protein first and MTX-α-Phe (5.32 mg/kg) 72 h later (ADEPT-2).
Tumor-inhibition rate: The major diameter and minor diameter of the tumor were measured every week after the administration of drugs. The mass of tumor (m=½×major diameter×minor diameter^2) and tumor-inhibition rate (TIR) was thus calculated according the following formula. [formula]
Cell cycle of tumor cells is calculated by the formula: tc=[lg(1+G)/lg(m2/m1)]×t (G: a component of the tumor growth group; m2, m1: tumor mass of a given component of the group observed at different time points; t: interval between observations).
Survival time of the nude mice refers to the period from the beginning of the treatment till natural death.
Histopathologic observation includes gross specimen examination and microscopic examination. Samples of tumor and organs were fixed with 100 ml/L formalin. Pathologic section was stained […] underwent microscopy observation.

[1] = tested on: PC cells (PC-3 and PC-3m); test: colony formation assay (soft agar culture); format: cell-based, human; details: 2 weeks
Procedure: 2) Colony formation assay. The colony formation assay was performed using soft agar culture method. 9 different groups were included in the assay: {circle over (1)}MTX+PC cell, {circle over (2)}MTX-α-Phe+PC cell, {circle over (3)}fusion protein+PC cell, {circle over (4)}MTX-α-Phe+CP-A+PC cell, {circle over (5)}MTX-α-Phe+fusion protein+PC cell, {circle over (6)}MTX-α-Arg+PC cell, {circle over (7)}MTX-α-Arg+CP-A+PC cell, {circle over (8)}MTX-α-Arg+fusion protein+PC cell and {circle over (9)}control group (PC cell only). All the tested prodrugs were used in three different concentrations, i.e. each of MTX, MTX-α-Phe and MTX-α-Arg was used at 0.4, 4, and 40 μg/ml. CP-A was used in a volume of 10 μl (2.5 mU/μl) and fusion protein was used in a volume of 10 μl (1 mg/ml). The density of PC cell was 200/well. The plate was incubated in a CO2 incubator at 37° C. for 2 weeks. After incubation, PC cells were fixed by a mixture of acetic acid and ethanol (1:3) for 2 h. Then microscopy was employed to calculate the percentage of colony formation.

[2] = tested on: PC cells (PC-3 and PC-3m); test: cell cycle kinetic analysis by flow cytometry; format: cell-based, human
Procedure: 3) Kinetic effects of the fusion protein/prodrug on the growth cycle of PC cells: PC-3 and PC-3m cells were added to several 10 ml culture flasks (10^6/ml). MTX, MTX-α-Arg, MTX-α-Phe+CP-A, MTX-α-Phe+fusion protein at different concentrations were added to the flasks, respectively. The cells were collected at 6 h, 16 h and 24 h after the addition of the tested drugs and washed twice with cold saline and then fixed with 950 ml/L ethanol. The cells were stained by routine DNA staining method. Flow cytometry was employed in the kinetic analysis (FACS Profile II; Laser rate: 15 mW; Green light filter: 488 nm).

[3] = tested on: PC cells (PC-3 and PC-3m); format: cell-based; details: MTT, 48 h; for lethal / cytotoxic effect to PC cells: lethal curves
Procedure: 1) MTT assay: PC-3 and PC-3m cells were seeded separately to a 96-well plate at 1×10^4 cells/ml/well. MTX, MTX-α-Phe, MTX-α-Phe+CP-A, MTX-α-Phe+fusion proteins and MTX-α-Arg, MTX-α-Arg+fusion proteins at different concentrations were also added into those wells. 3 parallel wells were set for each concentration. The cells were incubated in a CO2 incubator for 48 h. 20 μl of a solution of thiazole blue in PBS (5 mg/ml) was added to each well and incubated at 37° C. for 4 h. The culture medium and free thiazole blue were discarded and 0.1 ml of dimethylsulfoxide was added to each well. The absorbance at 405 nm was measured and mortality rate was calculated.

## CN(Cc1cnc2nc(N)nc(N)c2n1)c1ccc(C(=O)N[C@@H](CCC(=O)O)C(=O)O)cc1 [MTX, Methotrexate]
PC-3m tumor
  histopathologic examination of tumors: a large area of necrosis in the tumors
  average survival time / lifespan: 67 ± 13.8 days
PC-3m tumor; by the 6th week
  volume of tumors: significantly smaller than that in other groups
PC-3m tumor; from the 2nd week on
  growth of tumors: decreased
PC-3m tumor; mouse, in vivo
  living quality of mice: poor living quality
  tumor cell growth cycle: 2.5±0.2
  whole blood count: significantly lower than that of the ADEPT groups
[1]; P<0.001
  colony formation: none of these groups had any colony formed
[2]
  cell proliferation index: decreased significantly

## CN(Cc1cnc2nc(N)nc(N)c2n1)c1ccc(C(=O)NC(CCC(=O)O)C(=O)NC(CCCNC(=N)N)C(=O)O)cc1 (stereo not drawn) [MTX-α-Arg]
[1]
  colony-formation rate: 91%
[3]
  lethal / cytotoxic effect to PC cells: no lethal effect

## CN(Cc1cnc2nc(N)nc(N)c2n1)c1ccc(C(=O)N[C@@H](CCC(=O)O)C(=O)N[C@@H](Cc2ccccc2)C(=O)O)cc1 [MTX-α-Phe, methotrexate-α-phenylalanine]
PC-3m tumor; P>0.05
  tumor size compared with control: small compared with that of the control but the difference was not significant
PC-3m tumor
  histopathologic examination of tumors: characteristics typical of adenocarcinoma
  average survival time / lifespan: 31 ± 12.2 days
PC-3m tumor; mouse, in vivo
  tumor cell growth cycle: 1.7±0.2
[1]
  colony-formation rate: 88%
[2]
  kinetic change of cell cycle: did not show any significant kinetic change
[3]
  lethal / cytotoxic effect to PC cells: no lethal effect
[3]; PC cells, read-out: IC50 of the prodrug
  IC50: 72 mM

— US20050053611A1, “Pharmaceutical kit comprising anti-human seminal plasma protein single chain antibody/human carboxypeptidase fusion protein and prodrug” (priority 2001, published 2005)
